Consider seven compounds from ChEMBL document CHEMBL5465560, “Selectivity Literature for EUbOPEN Chemogenomic Library” (2024).

Test [1] has as its target Serine/threonine-protein kinase 35 (Homo sapiens) (UniProt Q8TDR2). Description: Selectivity interaction (KinomeScan (DiscoverX)) EUB0001619a STK35. The conditions noted are these: at 1 µM.
The target of test [2] is T1, Mitogen-activated protein kinase 13 (Homo sapiens) (UniProt O15264).
T1 sequence (whole entry): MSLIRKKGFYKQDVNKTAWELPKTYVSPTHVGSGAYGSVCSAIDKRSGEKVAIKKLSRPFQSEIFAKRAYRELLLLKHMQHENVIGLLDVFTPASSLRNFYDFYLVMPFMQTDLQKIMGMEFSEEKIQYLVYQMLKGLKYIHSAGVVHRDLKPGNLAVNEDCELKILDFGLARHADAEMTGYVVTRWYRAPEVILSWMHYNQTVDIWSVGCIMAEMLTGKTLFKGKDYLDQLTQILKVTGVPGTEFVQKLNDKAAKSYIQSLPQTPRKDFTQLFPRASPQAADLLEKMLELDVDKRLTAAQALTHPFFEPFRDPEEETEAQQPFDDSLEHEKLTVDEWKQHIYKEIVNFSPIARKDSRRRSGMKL
The test can be described thus: Selectivity interaction (KinomeScan (DiscoverX)) EUB0000695a MAPK13. The conditions noted are these: at 100 nM.

Test [3] has as its target T2, Cyclin-dependent kinase 11A (Homo sapiens) (UniProt Q9UQ88).
T2 sequence (whole entry): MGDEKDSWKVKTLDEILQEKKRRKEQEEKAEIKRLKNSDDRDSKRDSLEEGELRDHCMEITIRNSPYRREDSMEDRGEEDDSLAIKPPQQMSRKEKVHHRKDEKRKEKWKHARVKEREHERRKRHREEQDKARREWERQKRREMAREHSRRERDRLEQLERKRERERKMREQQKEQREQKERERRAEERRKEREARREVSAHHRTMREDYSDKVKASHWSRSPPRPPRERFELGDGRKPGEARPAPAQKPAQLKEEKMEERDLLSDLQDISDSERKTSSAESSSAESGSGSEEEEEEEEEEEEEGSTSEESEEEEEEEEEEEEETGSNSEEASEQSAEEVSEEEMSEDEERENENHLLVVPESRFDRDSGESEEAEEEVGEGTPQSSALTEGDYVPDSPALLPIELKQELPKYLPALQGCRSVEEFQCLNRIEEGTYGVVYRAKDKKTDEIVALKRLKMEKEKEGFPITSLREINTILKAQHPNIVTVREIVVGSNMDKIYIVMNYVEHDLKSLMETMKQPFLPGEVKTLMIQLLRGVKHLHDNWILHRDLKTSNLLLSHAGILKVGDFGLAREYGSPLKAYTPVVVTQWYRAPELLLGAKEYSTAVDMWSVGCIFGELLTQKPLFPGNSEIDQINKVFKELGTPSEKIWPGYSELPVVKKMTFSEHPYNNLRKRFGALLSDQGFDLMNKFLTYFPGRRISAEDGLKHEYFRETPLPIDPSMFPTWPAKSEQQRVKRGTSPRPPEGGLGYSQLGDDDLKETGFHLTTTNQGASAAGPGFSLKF
The test can be described thus: Selectivity interaction (KinomeScan (DiscoverX)) EUB0000666a CDK11A. To be noted: at 10 µM.

The target of test [4] is T3, Phosphatidylinositol 5-phosphate 4-kinase type-2 gamma (Homo sapiens) (UniProt Q8TBX8).
T3 sequence (whole entry): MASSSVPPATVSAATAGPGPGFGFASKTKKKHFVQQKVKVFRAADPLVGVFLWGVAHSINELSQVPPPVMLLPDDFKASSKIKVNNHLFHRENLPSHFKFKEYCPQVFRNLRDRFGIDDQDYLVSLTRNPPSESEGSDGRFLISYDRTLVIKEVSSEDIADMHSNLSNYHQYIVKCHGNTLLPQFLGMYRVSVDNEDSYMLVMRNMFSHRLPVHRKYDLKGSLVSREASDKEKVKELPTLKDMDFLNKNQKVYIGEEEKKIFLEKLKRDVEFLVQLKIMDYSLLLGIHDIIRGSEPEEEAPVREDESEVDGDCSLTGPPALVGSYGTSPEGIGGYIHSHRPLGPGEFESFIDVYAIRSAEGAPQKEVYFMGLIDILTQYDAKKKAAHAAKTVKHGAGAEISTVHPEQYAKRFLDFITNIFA
The test can be described thus: Selectivity interaction (ActivX KiNativ screen (kinase selectivity in THP-1 cell lysates)) EUB0000639a PIP4K2C. It counts as subcellular. The conditions noted are these: lysate, at 5 µM.

The target of test [5] is MAP kinase-interacting serine/threonine-protein kinase 2 (Homo sapiens, UniProt Q9HBH9). The test can be described thus: Selectivity interaction (KinomeScan (DiscoverX)) EUB0000045b MKNK2.
Chain of MAP kinase-interacting serine/threonine-protein kinase 2 (Q9HBH9 whole entry, looked up): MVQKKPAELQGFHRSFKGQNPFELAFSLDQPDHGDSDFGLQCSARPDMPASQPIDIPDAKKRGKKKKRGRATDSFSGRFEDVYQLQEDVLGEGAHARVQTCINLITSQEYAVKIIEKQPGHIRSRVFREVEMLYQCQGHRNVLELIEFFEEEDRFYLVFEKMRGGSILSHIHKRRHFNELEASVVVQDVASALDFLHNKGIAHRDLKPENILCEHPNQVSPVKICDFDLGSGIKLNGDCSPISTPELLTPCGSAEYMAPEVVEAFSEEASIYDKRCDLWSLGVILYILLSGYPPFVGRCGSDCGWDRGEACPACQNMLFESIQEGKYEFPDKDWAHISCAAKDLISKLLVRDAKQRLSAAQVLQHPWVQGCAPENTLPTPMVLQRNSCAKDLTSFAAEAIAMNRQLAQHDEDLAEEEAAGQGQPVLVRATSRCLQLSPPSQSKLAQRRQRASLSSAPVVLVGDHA
For test [6], the target named is Ephrin type-A receptor 7 (Homo sapiens) (UniProt Q15375). Description: Selectivity interaction (Ambit KINOMEscan and KiNATiv profiling in Jurkat cells) EUB0000090b EPHA7. To be noted: at 1 µM. It counts as cell-based.
Chain of Ephrin type-A receptor 7 (Homo sapiens) (Q15375 28-998 limits assumed): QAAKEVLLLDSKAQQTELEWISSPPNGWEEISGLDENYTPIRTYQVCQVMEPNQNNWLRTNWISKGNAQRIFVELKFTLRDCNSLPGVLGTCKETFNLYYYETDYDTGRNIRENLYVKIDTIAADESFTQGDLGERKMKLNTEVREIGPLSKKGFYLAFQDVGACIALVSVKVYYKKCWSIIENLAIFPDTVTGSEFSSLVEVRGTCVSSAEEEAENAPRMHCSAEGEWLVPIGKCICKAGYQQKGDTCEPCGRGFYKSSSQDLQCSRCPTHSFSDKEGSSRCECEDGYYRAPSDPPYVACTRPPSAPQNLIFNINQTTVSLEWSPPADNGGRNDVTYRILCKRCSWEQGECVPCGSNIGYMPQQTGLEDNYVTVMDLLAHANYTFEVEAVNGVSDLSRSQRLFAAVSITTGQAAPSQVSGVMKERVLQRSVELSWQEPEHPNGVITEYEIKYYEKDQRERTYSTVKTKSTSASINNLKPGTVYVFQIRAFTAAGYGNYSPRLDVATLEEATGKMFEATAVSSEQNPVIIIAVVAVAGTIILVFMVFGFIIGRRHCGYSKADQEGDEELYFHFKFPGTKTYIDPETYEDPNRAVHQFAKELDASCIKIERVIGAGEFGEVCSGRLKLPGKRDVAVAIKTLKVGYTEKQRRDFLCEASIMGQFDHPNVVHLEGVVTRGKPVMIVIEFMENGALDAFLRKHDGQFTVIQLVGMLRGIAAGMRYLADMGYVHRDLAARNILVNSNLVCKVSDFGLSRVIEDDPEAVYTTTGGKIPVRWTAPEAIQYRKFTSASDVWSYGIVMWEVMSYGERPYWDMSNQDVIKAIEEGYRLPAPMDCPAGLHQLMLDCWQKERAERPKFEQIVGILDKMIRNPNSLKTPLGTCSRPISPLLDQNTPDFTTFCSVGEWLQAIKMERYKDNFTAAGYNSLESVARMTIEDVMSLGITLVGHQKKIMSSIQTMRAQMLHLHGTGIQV
Test [7] deals with T4, Serine/threonine-protein kinase Nek9 (Homo sapiens) (UniProt Q8TD19).
T4 sequence (whole entry): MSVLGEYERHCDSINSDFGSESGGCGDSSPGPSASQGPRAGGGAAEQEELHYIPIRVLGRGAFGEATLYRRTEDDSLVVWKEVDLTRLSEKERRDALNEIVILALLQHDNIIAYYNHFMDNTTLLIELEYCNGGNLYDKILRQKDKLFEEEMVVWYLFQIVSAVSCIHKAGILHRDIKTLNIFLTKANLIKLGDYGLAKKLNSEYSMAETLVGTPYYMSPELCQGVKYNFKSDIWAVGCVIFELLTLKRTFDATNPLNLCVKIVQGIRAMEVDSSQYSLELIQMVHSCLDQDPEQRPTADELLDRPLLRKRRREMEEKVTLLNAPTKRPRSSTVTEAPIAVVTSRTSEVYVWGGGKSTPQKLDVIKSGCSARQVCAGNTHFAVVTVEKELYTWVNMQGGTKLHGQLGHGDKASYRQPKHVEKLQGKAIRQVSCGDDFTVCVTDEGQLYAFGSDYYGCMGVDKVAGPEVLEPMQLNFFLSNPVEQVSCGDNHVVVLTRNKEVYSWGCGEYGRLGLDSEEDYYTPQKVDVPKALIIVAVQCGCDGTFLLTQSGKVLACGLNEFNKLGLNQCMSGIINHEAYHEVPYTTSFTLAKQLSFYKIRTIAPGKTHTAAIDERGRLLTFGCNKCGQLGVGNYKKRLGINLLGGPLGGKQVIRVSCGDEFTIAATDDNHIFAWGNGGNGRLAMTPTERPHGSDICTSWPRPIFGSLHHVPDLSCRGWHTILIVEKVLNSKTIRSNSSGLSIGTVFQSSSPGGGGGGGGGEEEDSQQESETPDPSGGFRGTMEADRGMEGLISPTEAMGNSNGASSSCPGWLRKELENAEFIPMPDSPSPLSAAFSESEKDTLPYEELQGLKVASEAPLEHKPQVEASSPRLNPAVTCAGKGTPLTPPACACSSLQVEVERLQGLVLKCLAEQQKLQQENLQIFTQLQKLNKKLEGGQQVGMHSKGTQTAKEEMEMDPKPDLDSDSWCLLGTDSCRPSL
The test can be described thus: Selectivity interaction (Kinase panel (KiNativ target engagement assay in Jurkat cells)) EUB0001635a NEK9. To be noted: at 1 µM. It counts as cell-based.

Chain of Serine/threonine-protein kinase 35 (Homo sapiens) (Q8TDR2 whole entry): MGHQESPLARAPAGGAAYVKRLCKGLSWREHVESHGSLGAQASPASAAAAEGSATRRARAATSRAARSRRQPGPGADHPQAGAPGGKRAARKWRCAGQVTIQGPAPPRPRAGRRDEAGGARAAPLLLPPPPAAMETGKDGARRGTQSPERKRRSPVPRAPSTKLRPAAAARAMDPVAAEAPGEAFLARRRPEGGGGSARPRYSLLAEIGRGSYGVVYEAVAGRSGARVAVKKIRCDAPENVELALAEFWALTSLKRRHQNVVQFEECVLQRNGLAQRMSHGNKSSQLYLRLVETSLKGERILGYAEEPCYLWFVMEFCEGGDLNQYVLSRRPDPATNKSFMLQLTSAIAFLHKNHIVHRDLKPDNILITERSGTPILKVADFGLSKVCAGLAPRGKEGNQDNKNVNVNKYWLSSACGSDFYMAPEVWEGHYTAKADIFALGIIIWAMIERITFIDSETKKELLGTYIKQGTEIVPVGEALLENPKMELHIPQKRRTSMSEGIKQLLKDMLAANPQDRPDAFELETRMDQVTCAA

`N#Cc1cccc(-c2c[nH]c3ncnc(N4CCOCC4)c23)c1` yielded a % of control in test [1] of 62%.

With `Cc1cc(F)c(C(=O)Nc2cccc(-c3nncn3C(C)C)n2)cc1-n1cnc(C2CC2)c1`, in test [2], the % of control came out at 100%. In test [3], `O=C(NOC[C@H](O)CO)c1ccc(F)c(F)c1Nc1ccc(I)cc1F` registered a % of control of 100%. In turn, `CC[C@@H]1[C@H](F)C(=O)N[C@@H]1COc1nccc2cc(C(N)=O)c(OC)cc12` [ZIMLOVISERTIB] gave a % of inhibition in test [4] of 87.4%.

For the compound `C=CC(=O)Nc1cc(-n2c(=O)ccc3cnc4ccc(-c5ccc(NS(C)(=O)=O)cc5)cc4c32)ccc1C`, the results for the % of control in test [5] (at 1 µM) and in test [5] (at 10 µM) were 100% and 52%, respectively. In test [6], `CN(C)C/C=C/C(=O)Nc1ccc(C(=O)N2CCCC(Nc3ncc(Cl)c(-c4c[nH]c5ccccc45)n3)C2)cc1` (centres undefined) displayed a % of control of 93%. For the compound `C=CC(=O)Nc1ccc(C(=O)Nc2[nH]nc3c2CN(C(=O)N[C@H](CN(C)C)c2ccccc2)C3(C)C)cc1`, the % of engagement was -1.8% in test [7] (Selectivity number of off-targets 0.0, Selectivity number of targets 233.0, Source Knowledge https://www.sciencedirect.com/science/article/pii/S2451945619300674?via%3Dihub) and -1.7% in test [7].
